# Laboratory results reported in patent publication US20240216354A1, “IMMUNOMODULATORY IMIDE DRUGS AS ZETA-CHAIN-ASSOCIATED PROTEIN KINASE 70 (ZAP70) AGONISTS AND USES THEREOF” (Dana-Farber Cancer Institute, Inc., priority 2019, published 2024).
# Columns and labels:
# [1] = system: U266 cells; test: Primary NK cell cytolytic activity against calcein AM-labeled U266; format: cell-based, human; settings: primary NK cells #1, #2, pomalidomide 0.25-1 μM 24 h, E/T 5/1 and 10/1
# Procedure: (§1) KHYG-1 cells were cultured with pomalidomide (0.25-1 μM) for 24 h. (A) Whole cell lysates were subjected to immunoblotting using indicated Abs. (B) KHYG-1 cells were incubated with calcein-AM-stained U266 cells for 4 h at the indicated effector/target (E/T) ratios. Percent specific lysis was calculated as described previously. (C) KHYG-1 cells were transfected with Scsi or Zap-70si, and then cultured with pomalidomide (0.25 μM) for 72 h in the absence of IL-2. Viable cell number was determined, and cells were then incubated with calcein AM-labeled U266 target cells for 4 h at indicated effector/target (E/T) ratios. Percent specific lysis was calculated as described previously. (D) After transfection with Scsi or Zap-70si, cells were cultured with lenalidomide or pomalidomide for 72 h. Cell growth was assessed by MTT assay. (E) KHYG-1 cells were transfected with scrambled (Scsi) or CRBNsi. The transfectants were then cultured with pomalidomide (0.5 μM) for 24 h, and whole cell lysates were subjected to immunoblotting using indicated Abs. The arrow indicates CRBN expression. (F) Primary NK cells (#1, #2, #3, #4) were isolated from healthy volunteer's PBMCs, as described in Materials and Methods. NK cells were cultured with pomalidomide (0.5 μM) for 24 h, and whole cell lysates were subjected to immunoblotting using indicated Abs. […] Percent specific lysis was calculated as previously described.
# [2] = molecular target: T1, Zap-70 (Homo sapiens, UniProt P43403); test: Immunoblotting of p-Zap-70, p-LAT and p-ERK in PBMCs; format: cell-based; set-up: endogenous in cells; host or cells: primary PBMCs, primary T cells and primary NK cells from healthy volunteers
# T1 sequence (P43403 1-619): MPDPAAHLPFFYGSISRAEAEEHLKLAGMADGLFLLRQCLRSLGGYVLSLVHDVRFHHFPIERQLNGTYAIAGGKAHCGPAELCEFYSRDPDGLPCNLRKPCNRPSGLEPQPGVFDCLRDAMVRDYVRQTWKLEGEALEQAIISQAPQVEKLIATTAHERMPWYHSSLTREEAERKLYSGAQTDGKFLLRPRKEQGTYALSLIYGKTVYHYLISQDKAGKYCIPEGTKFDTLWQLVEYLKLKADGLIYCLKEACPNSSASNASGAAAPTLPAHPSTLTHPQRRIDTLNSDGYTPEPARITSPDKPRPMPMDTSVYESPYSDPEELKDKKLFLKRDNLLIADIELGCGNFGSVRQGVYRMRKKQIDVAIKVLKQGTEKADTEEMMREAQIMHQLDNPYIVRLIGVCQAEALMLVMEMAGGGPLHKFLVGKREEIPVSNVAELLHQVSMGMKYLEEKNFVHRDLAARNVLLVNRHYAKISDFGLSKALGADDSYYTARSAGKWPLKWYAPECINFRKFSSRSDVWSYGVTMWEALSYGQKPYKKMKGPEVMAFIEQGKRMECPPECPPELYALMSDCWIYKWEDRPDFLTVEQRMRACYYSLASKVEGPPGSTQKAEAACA
# Procedure: (A) PBMCs were cultured with pomalidomide (“Pom”) (0.01-1 μM) for 16 h. […] (B) PBMCs were cultured with pomalidomide (0.1 and 1 μM) for the indicated time periods. (C) PBMCs were cultured with lenalidomide (“Len”) (1 μM) for 16 h. (D) Primary T-cells from healthy volunteer were cultured with pomalidomide (0.25-1 μM) for 16 h. (E) Jurkat cells were cultured with pomalidomide (0.5 and 1 μM) for 16 h. Whole cell lysates were subjected to immunoblotting (A-E) using indicated Abs. (F) Jurkat cells were cultured with pomalidomide (0.01-1 μM) or lenalidomide (0.01-1 μM) for 72 h. Cell growth was assessed by MTT assay.
# To characterize the effect of IMiDs on Zap-70 function in immune effector cells, pomalidomide triggered phosphorylation of Zap-70 was evaluated along with its known downstream target linker of activated T-cells (LAT) in PBMCs from healthy volunteers. […] Image J densitometric analysis confirmed 42% increased p-Zap-70 after pomalidomide (1 μM) treatment (FIG. 1A, lower panel). The increased p-Zap-70, p-LAT, as well as downstream p-ERK in PBMCs triggered by pomalidomide is also time-dependent (FIG. 1B). […] Since Zap-70 is a mediator of T-cell receptor signaling, whether IMiDs triggered p-Zap-70 in T cells from healthy volunteers was studied.
# [3] = molecular target: T1, Zap-70; test: Pomalidomide-beads pull-down from Jurkat whole cell lysates; format: binding; set-up: purchased Origene, Rockville, MD; settings: competitor 1 mM free pomalidomide, 1 h
# Procedure: (A) Jurkat cells were transfected with scrambled (Sc) siRNA or Zap-70 siRNA. Whole cell lysates were subjected to immunoblotting using indicated Abs. (B) Jurkat cells were treated with lenalidomide ([…]) or pomalidomide (1 and 3 μM) for 4 h and 8 h. Whole cell lysates were subjected to p-Zap ELISA assay. (C) Jurkat whole cell lysates were incubated with pomalidomide-beads in the presence or absence of competitor (1 mM free pomalidomide) for 1 h. After elution, samples were subjected to immunoblotting using anti-Zap-70 Ab. (D) Saturation-transfer difference resulting from the binding of pomalidomide to Zap-70. Pomalidomide is at 320 μM and Zap-70 is approximately 2 μM in deuterated PBS solution. […] (E) Saturation-transfer difference resulting from the binding of pomalidomide to Zap-70 in the presence of 2.56 mMATP. Pomalidomide is at 320 μM and Zap-70 is approximately 2 μM in deuterated PBS solution. […] Note that both ATP and pomalidomide show binding the Zap-70. (F) Non-cell based Zap-70 kinase assay was carried out, according to manufacturer's protocol.
# [4] = molecular target: T1, Zap-70; test: Immunoblotting of p-Zap-70 in primary NK cells from healthy volunteers; format: cell-based; set-up: endogenous in cells; host or cells: primary PBMCs, primary T cells and primary NK cells from healthy volunteers; settings: primary NK cells #1-#4, pomalidomide 0.5 μM, 24 h
# Procedure: as §1
structure (smiles),measurement,setting,value
Nc1cccc2c1C(=O)N(C1CCC(=O)NC1=O)C2=O (stereo not shown) [pomalidomide],NK cytolytic activity against U266 cells,[1],significantly enhanced their NK cytolytic activity against U266 cells
same,phosphorylation of LAT (immunoblotting),"[2]; 16 h, Pom 0.01-1 μM, Len 1 μM",induced phosphorylation of both Zap-70 and LAT in PBMCs in a dose-dependent fashion
same,phosphorylation of Zap-70 (immunoblotting),"[2]; 16 h, Pom 0.01-1 μM, Len 1 μM",induced phosphorylation of both Zap-70 and LAT in PBMCs in a dose-dependent fashion
same,"increased p-Zap-70, Image J densitometric analysis","[2]; pomalidomide 1 μM, 16 h",42%
same,"increased p-Zap-70, p-LAT and downstream p-ERK over time","[2]; pomalidomide 0.1 and 1 μM, indicated time periods",time-dependent
same,competition of Zap-70 pull-down by Pom-beads,[3],inhibited by free pomalidomide
same,p-Zap-70 (immunoblotting),[4],upregulated p-Zap-70 in primary NK cells
